Experiments:
Type in all cases: cell-based, human
[1] = test system: endometrial cancer cell lines; test: 3D proliferation assay with synergy analysis, endometrial panel; conditions: VS-6766 combined with ZN-C3 (WEE1); panel of 6 endometrial cancer cell lines; 3D Matrigel, 7 days, CellTiter-Glo; FIG. 3, 4
Description: (§1) As examples, human cancer cell lines including non-small cell lung cancer (NSCLC), colorectal cancer (CRC), ovarian cancer and endometrial cancer were grown in 3D conditions. Briefly, 96-well plates were coated with 50 μL of Matrigel (100%) and incubated at 37° C. and 5% CO2 for 30 min in order for the Matrigel to solidify. Cells were seeded in 100 μL of 2% Matrigel containing medium. After an overnight incubation (17-22 hours), cells were treated with VS-6766 (RAF/MEK clamp)+/−DDR pathway inhibitor (e.g., DDR pathway inhibitor that targets WEE1, e.g., ZN-C3) for 7 days. VS-6766 was used at 1:5 dilutions starting at 5 μM and ZN-C3 was used at 1:3 dilutions starting at 5 μM. Cell viability was measured using the cell viability CellTiter-Glo assay.
(§2) Raw data and metadata files were processed with a custom R-script for single agent and combination activity. Bliss, Loewe, Highest Single Agent (HSA) and ZIP synergy analysis were performed to generate a composite synergy score. Summary graphics and reports were saved for visualization and further analysis.

[2] = test system: NSCLC KRAS mutant cell lines; test: 3D proliferation assay with synergy analysis, NSCLC panel; conditions: VS-6766 combined with ZN-C3 (WEE1); panel of 9 NSCLC KRAS mutant cell lines; 3D Matrigel, 7 days, CellTiter-Glo; FIG. 1, 2
Description: as §1, §2

[3] = test system: ovarian cancer cell lines; test: 3D proliferation assay with synergy analysis, ovarian panel; conditions: VS-6766 combined with ZN-C3 (WEE1); panel of 12 ovarian cancer cell lines; 3D Matrigel, 7 days, CellTiter-Glo; FIG. 3, 4
Description: as §1, §2

[4] = test system: CRC KRAS mutant cell lines; test: 3D proliferation assay with synergy analysis, CRC panel; conditions: VS-6766 combined with ZN-C3 (WEE1); panel of 9 CRC KRAS mt cell lines; 3D Matrigel, 7 days, CellTiter-Glo; FIG. 1, 2
Description: as §1, §2

Measured: synergy with ZN-C3 in reducing cell viability (composite of Bliss, Loewe, HSA and ZIP)

CNS(=O)(=O)Nc1nccc(Cc2c(C)c3ccc(Oc4ncccn4)cc3oc2=O)c1F [VS-6766]
synergistic: [1] | [2] | [3] | [4]

— US20250099467A1, “COMBINATION THERAPY FOR TREATING ABNORMAL CELL GROWTH” (Verastem, Inc., priority 2022, published 2025)
